Data from patent US20230407243A1, “GENETIC PLATFORM TO INVESTIGATE THE FUNCTIONS OF BACTERIAL DRUG EFFLUX PUMPS” (priority 2022, published 2023).
Read-outs that look alike come from different tables or passages of the source.

Assays:
Assay type in all cases: cell-based, Escherichia coli
[1] = system: wild-type (WT) K-12-Pore; assay: microbe, parasite or virus in culture; conditions: Escherichia coli, technical duplicate
How it was run: (§1)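 MIC values come from background-corrected OD600 readings (pre-incubation OD subtracted) after 18 h at 37 °C and 900 rpm in MHB II. Compounds were tested in duplicate as 2-fold dilutions. The inoculum came from 18 h LB cultures adjusted to OD600 ~1.0 and diluted 1/2000, and the pore-bearing strains were vancomycin-checked beforehand.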

[2] = system: ΔtolC-Pore; assay: microbe, parasite or virus in culture; conditions: for MIC: Escherichia coli, 18 h, read-out: Minimum inhibitory concentration, ΔtolC-Pore; for Minimum inhibitory concentration (MIC), Pore ΔtolC: Table 10, with pore, technical duplicate
How it was run: as §1

[3] = system: EKO-35 araC::acrB Pore; assay: MIC susceptibility profiling, porinated efflux platform; conditions: for Fold changes of MICs: EKO-35 araC::acr-B Pore compared to EKO-35-Pore; for MIC: Escherichia coli, Table 14A, porinated, technical duplicate, read-out: Minimum inhibitory concentration, EKO-35 araC::acrB Pore
How it was run: as §1

[4] = system: EKO-35 araC::mexCD Pore; assay: as above; conditions: for Fold changes of MICs: EKO-35 araC::mexCD Pore compared to EKO-35-Pore; for MIC: Escherichia coli, EKO-35 araC::mexCD Pore, technical duplicate, read-out: Minimum inhibitory concentration
How it was run: as §1

[5] = system: EKO-35 araC::emrAB Pore; assay: as above; conditions: for Fold changes of MICs: EKO-35 araC::emrAB Pore compared to EKO-35-Pore; for MIC: Escherichia coli, EKO-35 araC::emrAB Pore, technical duplicate, read-out: Minimum inhibitory concentration
How it was run: as §1

[6] = system: EKO-35 araC::mdtBC Pore; assay: as above; conditions: for Fold changes of MICs: EKO-35 araC::mdtBC Pore compared to EKO-35-Pore; for MIC: Escherichia coli, EKO-35 araC::mdtBC Pore, technical duplicate, read-out: Minimum inhibitory concentration
How it was run: as §1

[7] = system: EKO-35 araC::acrD Pore; assay: as above; conditions: for Fold changes of MICs: EKO-35 araC::acrD Pore compared to EKO-35-Pore; for MIC: Escherichia coli, Table 14A, porinated, technical duplicate, read-out: Minimum inhibitory concentration, EKO-35 araC::acrD Pore
How it was run: as §1

[8] = system: EKO-35 araC::macAB Pore; assay: as above; conditions: for Fold changes of MICs: EKO-35 araC::macAB Pore compared to EKO-35-Pore; for MIC: Escherichia coli, EKO-35 araC::macAB Pore, technical duplicate, read-out: Minimum inhibitory concentration
How it was run: as §1

[9] = system: EKO-35 araC::acrEF Pore; assay: as above; conditions: for Fold changes of MICs: EKO-35 araC::acrEF Pore compared to EKO-35-Pore; for MIC: Escherichia coli, Table 14A, porinated, technical duplicate, read-out: Minimum inhibitory concentration, EKO-35 araC::acrEF Pore
How it was run: as §1

[10] = system: EKO-35 araC::acrBD408A Pore; assay: as above; conditions: for Fold changes of MICs: EKO-35 araC::acrBD408A Pore compared to EKO-35-Pore; for MIC: Escherichia coli, EKO-35 araC::acrBD408A Pore, technical duplicate, read-out: Minimum inhibitory concentration
How it was run: as §1

[11] = system: EKO-35 araC::mdtEF Pore; assay: as above; conditions: for Fold changes of MICs: EKO-35 araC::mdtEF Pore compared to EKO-35-Pore; for MIC: Escherichia coli, Table 14A, porinated, technical duplicate, read-out: Minimum inhibitory concentration, EKO-35 araC::mdtEF Pore
How it was run: as §1

[12] = system: EKO-35 araC::emrKY Pore; assay: as above; conditions: for Fold changes of MICs: EKO-35 araC::emrKY Pore compared to EKO-35-Pore; for MIC: Escherichia coli, EKO-35 araC::emrKY Pore, technical duplicate, read-out: Minimum inhibitory concentration
How it was run: as §1

[13] = system: EKO-35 araC::acrEF; assay: MIC susceptibility profiling, efflux platform; conditions: for Fold change of MICs: EKO-35 araC::acrEF compared to EKO-35; for MIC: Escherichia coli, Table 13A, non-porinated, technical duplicate, read-out: Minimum Inhibitory Concentration, EKO-35 araC::acrEF
How it was run: (§2)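 MIC derived from pre-incubation-corrected OD600 after 18 h growth at 37° C. (900 rpm) in MHB II. Inoculum was cells from 18 h LB culture adjusted to OD600 ~1.0 in PBS, then diluted 1/2000; compounds two-fold serially titrated in duplicate, DMSO as solvent control.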

[14] = system: EKO-35 araC::mdtEF; assay: MIC susceptibility profiling, efflux platform; conditions: for Fold change of MICs: EKO-35 araC::mdtEF compared to EKO-35; for MIC: Escherichia coli, Table 13A, non-porinated, technical duplicate, read-out: Minimum Inhibitory Concentration, EKO-35 araC::mdtEF
How it was run: as §2

[15] = system: EKO-35 araC::macAB; assay: MIC susceptibility profiling, efflux platform; conditions: for Fold change of MICs: EKO-35 araC::macAB compared to EKO-35; for MIC: Escherichia coli, Table 13B, non-porinated, technical duplicate, read-out: Minimum Inhibitory Concentration, EKO-35 araC::macAB
How it was run: as §2

[16] = system: EKO-35 araC::acrBD408A; assay: MIC susceptibility profiling, efflux platform; conditions: for Fold change of MICs: EKO-35 araC::acrBD408A compared to EKO-35; for MIC: Escherichia coli, Table 13B, non-porinated, technical duplicate, read-out: Minimum Inhibitory Concentration, EKO-35 araC::acrBD408A
How it was run: as §2

[17] = system: EKO-35 araC::emrAB; assay: MIC susceptibility profiling, efflux platform; conditions: for Fold change of MICs: EKO-35 araC::emrAB compared to EKO-35; for MIC: Escherichia coli, Table 13B, non-porinated, technical duplicate, read-out: Minimum Inhibitory Concentration, EKO-35 araC::emrAB
How it was run: as §2

[18] = system: EKO-35 araC::emrKY; assay: MIC susceptibility profiling, efflux platform; conditions: for Fold change of MICs: EKO-35 araC::emrKY compared to EKO-35; for MIC: Escherichia coli, Table 13B, non-porinated, technical duplicate, read-out: Minimum Inhibitory Concentration, EKO-35 araC::emrKY
How it was run: as §2

[19] = Table 10, with pore, read-out: Minimum inhibitory concentration (MIC), Pore K-12
[20] = Table 14A, porinated, read-out: Minimum inhibitory concentration, K-12 (WT)-Pore

| Compound | MIC [1, 19] [µg/mL] | MIC [1, 20] [µg/mL] | MIC [2] [µg/mL] | Minimum inhibitory concentration (MIC), Pore ΔtolC [2] [µg/mL] | Fold changes of MICs [3] [fold] | Fold changes of MICs [4] [fold] | MIC [4] [µg/mL] | Fold changes of MICs [5] [fold] | MIC [5] [µg/mL] | Fold changes of MICs [6] [fold] | MIC [6] [µg/mL] | Fold changes of MICs [7] [fold] | MIC [7] [µg/mL] | Fold changes of MICs [8] [fold] | MIC [8] [µg/mL] | Fold changes of MICs [9] [fold] | MIC [9] [µg/mL] | Fold changes of MICs [10] [fold] | MIC [10] [µg/mL] | Fold changes of MICs [11] [fold] | further results |
| --- | --- | --- | --- | --- | --- | --- | --- | --- | --- | --- | --- | --- | --- | --- | --- | --- | --- | --- | --- | --- | --- |
| CC[n+]1c(-c2ccccc2)c2cc(N)ccc2c2ccc(N)cc21 [ethidium bromide] | 100 | 100 | 3.12 | 3.125 | 64 | 8 | 0.781 | 1 | 0.098 | 1 | 0.098 | 2 | 0.195 | 1 | 0.098 | 16 | 1.56 | 1 | 0.098 | 8 | MIC [3]: 6.25 µg/mL; MIC [11]: 0.781 µg/mL; Fold changes of MICs [12]: 1 fold; MIC [12]: 0.098 µg/mL; Fold change of MICs [13]: 16 fold; MIC [13]: 3.12 µg/mL; Fold change of MICs [14]: 8 fold; MIC [14]: 1.56 µg/mL; Fold change of MICs [15]: 1 fold; MIC [15]: 0.195 µg/mL; Fold change of MICs [16]: 2 fold; MIC [16]: 0.391 µg/mL; Fold change of MICs [17]: 1 fold; MIC [17]: 0.195 µg/mL; Fold change of MICs [18]: 1 fold; MIC [18]: 0.195 µg/mL |
| CCn1cc(C(=O)O)c(=O)c2cc(F)c(N3CCNCC3)cc21 [norfloxacin] | 0.078 | 0.078 | 0.01 | 0.010 | 8 | 4 | 0.039 | 2 | 0.02 | 2 | 0.02 | 2 | 0.02 | 2 | 0.02 | 4 | 0.039 | 2 | 0.02 | 2 | efflux pump-mediated resistance vs EKO-35-Pore ([4]; MexCD, OM compromised): increased resistance; MIC [11]: 0.02 µg/mL; Fold changes of MICs [12]: 1 fold; MIC [12]: 0.01 µg/mL; Fold change of MICs [13]: 4 fold; Fold change of MICs [14]: 1 fold; MIC [14]: 0.02 µg/mL; Fold change of MICs [15]: 1 fold; MIC [15]: 0.02 µg/mL; Fold change of MICs [16]: 1 fold; MIC [16]: 0.02 µg/mL; Fold change of MICs [17]: 1 fold; MIC [17]: 0.02 µg/mL; MIC [18]: 0.01 µg/mL |
| CN(C)c1ccc(O)c2c1C[C@H]1C[C@H]3[C@H](N(C)C)C(O)=C(C(N)=O)C(=O)[C@@]3(O)C(O)=C1C2=O [minocycline] | 0.781 | 0.781 | 0.098 | 0.098 | 8 | 1 | 0.049 | 1 | 0.049 | 1 | 0.049 | 2 | 0.098 | 1 | 0.049 | 2 | 0.098 | 1 | 0.049 | 2 | MIC [3]: 0.391 µg/mL; MIC [11]: 0.098 µg/mL; Fold changes of MICs [12]: 1 fold; MIC [12]: 0.049 µg/mL; Fold change of MICs [13]: 2 fold; MIC [13]: 0.098 µg/mL; Fold change of MICs [14]: 1 fold; MIC [14]: 0.049 µg/mL; Fold change of MICs [15]: 1 fold; MIC [15]: 0.049 µg/mL; Fold change of MICs [16]: 1 fold; MIC [16]: 0.049 µg/mL; Fold change of MICs [17]: 1 fold; MIC [17]: 0.049 µg/mL; Fold change of MICs [18]: 1 fold; MIC [18]: 0.049 µg/mL |
